Data taken from the supplement of paper PMC10307832.

How the values were obtained:
Experiment in all cases: relative viability (nuclei count vs DMSO), 5 days (fraction); higher = more cells survive
[1] = compound: COc1cc2nc(N3CCCN(C)CC3)nc(NC3CCN(Cc4ccccc4)CC3)c2cc1OC + N=C(N)NC(=N)NCCc1ccccc1 [Phenformin] (partner 250 µM)
Method in brief: (§1)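 Five library-drug doses in √10 steps were combined with a fixed anchor-drug dose, or a single drug was given alone, by pin tool to lung cancer cell lines in 1536-well plates the day after seeding. Nuclei were stained and counted after 5 days. Relative viability is the nuclei count in treated wells over that in vehicle wells, taken as the median of duplicate plates.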

[2] = compound: Cc1cc([C@@H](C)Nc2ccccc2C(=O)O)c2nc(N3CCOCC3)cc(=O)n2c1 [AZD6482] + CS(=O)(=O)CCNCc1ccc(-c2ccc3ncnc(Nc4ccc(OCc5cccc(F)c5)c(Cl)c4)c3c2)o1 [Lapatinib] (partner 2 µM)
Method in brief: as §1

[3] = compound: Cc1cc([C@@H](C)Nc2ccccc2C(=O)O)c2nc(N3CCOCC3)cc(=O)n2c1 [AZD6482] + CC(C)C[C@H](NC(=O)[C@H](Cc1ccccc1)NC(=O)c1cnccn1)B(O)O [Bortezomib] (partner 0.002 µM)
Method in brief: as §1

[4] = compound: COc1cc2nc(N3CCCN(C)CC3)nc(NC3CCN(Cc4ccccc4)CC3)c2cc1OC + Cc1cc(Nc2cc(N3CCN(C)CC3)nc(Sc3ccc(NC(=O)C4CC4)cc3)n2)n[nH]1 [Tozasertib] (partner 0.1 µM)
Method in brief: as §1

Cell Line	relative viability ([1]; first compound 0.2 µM)	relative viability ([1]; first compound 0.6325 µM)	relative viability ([1]; first compound 2 µM)	relative viability ([1]; first compound 6.325 µM)	relative viability ([2]; first compound 0.08 µM)	relative viability ([2]; first compound 0.253 µM)	relative viability ([2]; first compound 0.8 µM)	relative viability ([2]; first compound 2.53 µM)	relative viability ([2]; first compound 8 µM)	relative viability ([3]; first compound 0.08 µM)	relative viability ([3]; first compound 0.253 µM)	relative viability ([3]; first compound 0.8 µM)	relative viability ([3]; first compound 2.53 µM)	relative viability ([3]; first compound 8 µM)	relative viability ([4]; first compound 0.2 µM)	relative viability ([4]; first compound 0.6325 µM)	relative viability ([4]; first compound 2 µM)	relative viability ([4]; first compound 6.325 µM)
201T	0.464	0.414	0.462	0.442	1.02	1.04	1.17	0.843	0.993	1.08	1.08	1.14	0.891	1.11	0.973	0.908	0.946	0.924
A549	0.185	0.165	0.195	0.146	0.944	0.891	0.913	0.485	0.571									
A-427	0.337	0.422	0.305	0.247	0.97	0.869	1.08	0.777	1.1	0.992	1.01	0.978	0.741	0.961	0.188	0.221	0.238	0.279
ABC-1	0.223	0.2	0.26	0.319	1.07	1.16	1.07	1.03	0.932	0.267	0.306	0.317	0.336	0.408	0.197	0.211	0.201	0.297
BEN	0.252	0.251	0.229	0.276	0.732	0.722	0.671	0.553	0.687	0.592	0.768	0.596	0.641	0.788	0.532	0.47	0.576	0.525
CAL-12T	0.503	0.606	0.686	0.532	0.601		0.529	0.272	0.578	0.843		0.895	0.426	0.597	0.363	0.381	0.365	0.323
COR-L23	0.456	0.446	0.494	0.398	0.938	0.948	1.15	0.734	0.893	0.948	0.945	1.23	0.678	0.828	0.24	0.195	0.319	0.457
COR-L 105	0.461	0.514	0.472	0.343	0.382	0.326	0.351	0.364	0.355	0.719	0.893	0.704	0.699	0.791	0.412	0.429	0.385	0.353
Calu-6					1.05	1.07	1.14	0.879	0.953	0.889	0.973	0.978	0.823	0.889				
ChaGo-K-1	0.51	0.494	0.492	0.498						1.09		1.14	0.981	1.27	0.206	0.218	0.219	0.244
EBC-1					0.184	0.196	0.211	0.218	0.216	0.498	0.532	0.463	0.358	0.381				
EKVX	0.233	0.235	0.233	0.24	0.173	0.342	0.181	0.141	0.167	0.815	0.965	0.863	0.789	0.689	0.41	0.34	0.476	0.542
EMC-BAC-2	0.531	0.477	0.496	0.523	0.852	0.869	0.886	0.695	0.828	1.02	1.07	1.12	0.838	0.948	0.264	0.258	0.32	0.317
EPLC-272H	0.353	0.335	0.318	0.348	0.812		1.01	0.709	0.673	0.706		0.973	0.904	0.834	0.247	0.269	0.344	0.29
H3255	0.332	0.372	0.362	0.344	0.194	0.221	0.263	0.182	0.152	0.738	0.896	0.874	0.382	0.559	0.604	0.851	0.641	0.742
HARA	0.474	0.425	0.494	0.462	0.707	0.503	0.919		0.483	0.977	1.08	1.37		1.13	0.123	0.125	0.0997	0.236
HCC-15	0.443	0.485	0.572	0.463	0.873	0.792	0.882	0.737	0.914	0.926	0.99	1.08	0.904	1.04	0.477	0.378	0.557	0.368
HCC-44	0.252	0.376	0.339	0.27	0.909	1.06	1.13	1.1	0.882	0.799	1.01	0.975	1.04	0.88	0.973	0.922	1.25	1.22
HCC-78	0.73	0.793	0.675	0.777	0.512	0.683	1.52	0.255	0.503	0.42	0.394	0.337	0.203	0.225	0.388	0.439	0.314	0.409
HCC-366	0.577	0.576	0.613	0.639	0.9	0.97	1.11	0.579	0.532	0.944	0.969	1.06	0.84	0.742	0.117	0.108	0.105	0.0544

Cell Line	relative viability ([1]; first compound 0.2 µM)	relative viability ([1]; first compound 0.6325 µM)	relative viability ([1]; first compound 2 µM)	relative viability ([1]; first compound 6.325 µM)	relative viability ([2]; first compound 0.08 µM)	relative viability ([2]; first compound 0.253 µM)	relative viability ([2]; first compound 0.8 µM)	relative viability ([2]; first compound 2.53 µM)	relative viability ([2]; first compound 8 µM)	relative viability ([3]; first compound 0.08 µM)	relative viability ([3]; first compound 0.253 µM)	relative viability ([3]; first compound 0.8 µM)	relative viability ([3]; first compound 2.53 µM)	relative viability ([3]; first compound 8 µM)	relative viability ([4]; first compound 0.2 µM)	relative viability ([4]; first compound 0.6325 µM)	relative viability ([4]; first compound 2 µM)	relative viability ([4]; first compound 6.325 µM)
IA-LM					0.898	1.13	0.903		0.626	1.11	0.876	0.953	0.416	0.496				
LCLC-103H	0.36	0.344	0.367	0.36						0.969	1.08	0.921	0.742	0.729	0.396	0.494	0.462	0.453
LK-2	0.504	0.569	0.576	0.311	1.13	0.645	0.959	0.767	0.815						0.199	0.178	0.187	0.19
NCI-H358	0.318	0.522	0.296	0.305	0.443	0.417	0.386	0.258	0.365						0.108	0.111	0.123	0.126
NCI-H441	0.821	0.859	1.03	0.85						0.617	0.481	0.595	0.357	0.449	0.607	0.623	0.581	0.69
NCI-H522	0.649	0.68	0.613	0.745											0.573	0.671	0.547	0.606
NCI-H1299					0.94	0.956	1.11	0.948	0.983	0.916	1.03	1.11	0.957	1.1				
NCI-H1395	0.461	0.451	0.433	0.397	0.787	0.741	0.836	0.511	0.562						0.784	0.705	0.835	0.81
NCI-H1563	0.638	0.75	0.68	0.666	0.902	0.842	0.876	0.674	0.778	0.75	0.828	0.818	0.673	0.68				
NCI-H1623	0.62	0.621	0.522	0.569											0.432	0.45	0.442	0.411
NCI-H1648															0.491	0.527	0.508	0.538
NCI-H1703					1.11	0.871	0.654	0.448	0.484	0.377	0.301	0.331	0.191	0.238				
NCI-H1792		0.257	0.467	0.268	0.814	0.815	0.879	0.628	0.598	0.856	0.859	0.991	0.677	0.483				
NCI-H1793	0.372	0.385	0.404	0.364	0.559	0.368	0.565		0.321						0.338	0.386	0.359	0.322
NCI-H1944	0.21	0.221	0.201	0.203	0.85	0.863	0.926	0.527	0.564						0.248	0.277	0.268	0.28
NCI-H2170	0.402	0.407	0.425	0.387	0.245	0.249	0.303	0.248	0.295						0.696	0.703	0.788	0.752
NCI-H2342	0.597	0.512	0.649	0.606											0.503	0.659	0.57	0.511
SK-MES-1	0.656	0.626	0.696	0.541	0.363	0.366	0.367	0.301	0.319						0.882	0.912	0.852	0.1
SW 900	0.522	0.682	0.645	0.47											0.509	0.539	0.585	0.548
